Legend:
[1] = Study 121: serum electrolytes and eGFR; assay type: in vivo, human
From the text: Aldosterone plays a direct role in the pathogenesis of hypertension via increasing renal absorption of sodium and water while promoting excretion of potassium. There is the potential therefore for an aldosterone synthesis inhibitor to cause the electrolyte abnormalities of hyperkalemia or hyponatremia. Moreover, the decrease in SBP expected with aldosterone inhibitors will reduce blood flow through the afferent arterioles in the kidney, leading to an apparent decline in determination of eGFR. These potential perturbations in kidney physiology were closely monitored throughout the study via the measurement of serum electrolytes and eGFR.

[2] = Study 124 Part 1: safety, adverse events and serum potassium; assay type: in vivo, human
From the text: The safety objectives for both Parts 1 and 2 are to evaluate vital signs, standing blood pressure, heart rate, physical examinations, ECG, body weight, and clinical laboratory assessments, including standard safety chemistry panel, hematology, coagulation, and urinalysis.

[3] = Study 121: adverse events, safety population
From the text: In this study, adverse events of special interest (AESIs) were events of hypotension, low sodium levels or elevated potassium levels that required clinical intervention.

[4] = Part 1, 0.5 mg baxdrostat, n = 63
[5] = Part 1, 1 mg baxdrostat, n = 62
[6] = Part 1, 2 mg baxdrostat, n = 60

CCC(=O)N[C@@H]1CCCc2c(-c3ccc4c(c3)CCC(=O)N4C)cncc21 [baxdrostat, (R)—N-(4-(1-methyl-2-oxo-1,2,3,4-tetrahydroquinolin-6-yl)-5,6,7,8-tetrahydroisoquinolin-8-yl) propionamide]
AEs of renal impairment ([1]; 0.5 mg): no cases | change in serum potassium from baseline to end of treatment, mean (standard deviation) ([1]; 0.5 mg): 0.19 (0.474) mEq/L | change in serum sodium from baseline to end of treatment, mean (SD) ([1]; 0.5 mg): −1.2 (2.73) mEq/L | patients with mild hyponatremia (serum sodium <130 mEq/L) ([1]; 0.5 mg): 1 patients | AEs of renal impairment ([1]; 1 mg): 3 | change in serum potassium from baseline to end of treatment, mean (standard deviation) ([1]; 1 mg): 0.36 (0.481) mEq/L | change in serum sodium from baseline to end of treatment, mean (SD) ([1]; 1 mg): −1.1 (3.03) mEq/L | patients with mild hyponatremia (serum sodium <130 mEq/L) ([1]; 1 mg): 7 patients | AEs of renal impairment ([1]; 2 mg): 1 | change in serum potassium from baseline to end of treatment, mean ([1]; 2 mg): 0.29 mEq/L | change in serum sodium from baseline to end of treatment, mean ([1]; 2 mg): −2.4 mEq/L | patients with mild hyponatremia (serum sodium <130 mEq/L) ([1]; 2 mg): 1 patients | mean eGFR ([1]; 0.5, 1, 2 mg QD): mild dose-dependent decrease in mean eGFR | overall rate of moderate hyperkalemia (potassium>6.0 mEq/L) ([1]; 2 highest dose groups): 2.2% | patients with moderate hyperkalemia (potassium>6.0 mEq/L) ([1]; 2 highest dose groups): 3 patients | moderate hypokalemia (potassium 3.0 to 2.5 mEq/L) ([1]; any baxdrostat dose groups): no cases | relationship between dose and serum calcium, serum phosphorus ([1]; in vivo): no apparent relationship | Mean Change in Serum Potassium From Baseline at Week 8 (SD) ([2]; 0.5 mg): −0.07 (0.37) mmol/L | Mean Change in Serum Potassium From Baseline at Week 8 (SD) ([2]; 1 mg): 0.26 (0.47) mmol/L | Mean Change in Serum Potassium From Baseline at Week 8 (SD) ([2]; 2 mg): 0.12 (0.48) mmol/L | increase in mean potassium ([2]; 2 mg dose): 0.1 mEq/L | potassium elevations>6.2 mEq/L ([2]; Part 1): No potassium elevations>6.2 mEq/L were recorded | share of patients receiving baxdrostat with potassium>6 mEq/L ([2]; Part 1): ~1.6% | treatment emergent SAEs ([2]; Part 1): two treatment emergent SAEs (2 patients) and neither were deemed related to baxdrostat | patients with isolated instances of moderately elevated potassium>6 mEq/L ([2]; Part 1, all baxdrostat doses): Three | AESI, % [2, 4]: 1.6% | AESI, e - Number of events [2, 4]: 1 | AESI, n - Number of subjects [2, 4]: 1 | SAEs, % [2, 4]: 0.0% | SAEs, e - Number of events [2, 4]: 0 | SAEs, n - Number of subjects [2, 4]: 0 | TEAEs Drug-Related, % [2, 4]: 6.3% | TEAEs Drug-Related, e - Number of events [2, 4]: 6 | TEAEs Drug-Related, n - Number of subjects [2, 4]: 4 | TEAEs Leading to death, % [2, 4]: 0.0% | TEAEs Leading to death, e - Number of events [2, 4]: 0 | TEAEs Leading to death, n - Number of subjects [2, 4]: 0 | TEAEs Leading to dosing discontinuation, % [2, 4]: 1.6% | TEAEs Leading to dosing discontinuation, e - Number of events [2, 4]: 1 | TEAEs Leading to dosing discontinuation, n - Number of subjects [2, 4]: 1 | TEAEs Leading to study discontinuation, % [2, 4]: 1.6% | TEAEs Leading to study discontinuation, e - Number of events [2, 4]: 1 | TEAEs Leading to study discontinuation, n - Number of subjects [2, 4]: 1 | TEAEs, % [2, 4]: 28.6% | TEAEs, e - Number of events [2, 4]: 30 | TEAEs, n - Number of subjects [2, 4]: 18 | AESI, % [2, 5]: 1.6% | AESI, e - Number of events [2, 5]: 1 | AESI, n - Number of subjects [2, 5]: 1 | SAEs, % [2, 5]: 1.6% | SAEs, e - Number of events [2, 5]: 1 | SAEs, n - Number of subjects [2, 5]: 1 | TEAEs Drug-Related, % [2, 5]: 9.7% | TEAEs Drug-Related, e - Number of events [2, 5]: 10 | TEAEs Drug-Related, n - Number of subjects [2, 5]: 6 | TEAEs Leading to death, % [2, 5]: 0.0% | TEAEs Leading to death, e - Number of events [2, 5]: 0 | TEAEs Leading to death, n - Number of subjects [2, 5]: 0 | TEAEs Leading to dosing discontinuation, % [2, 5]: 3.2% | TEAEs Leading to dosing discontinuation, e - Number of events [2, 5]: 2 | TEAEs Leading to dosing discontinuation, n - Number of subjects [2, 5]: 2 | TEAEs Leading to study discontinuation, % [2, 5]: 0.0% | TEAEs Leading to study discontinuation, e - Number of events [2, 5]: 0 | TEAEs Leading to study discontinuation, n - Number of subjects [2, 5]: 0 | TEAEs, % [2, 5]: 30.6% | TEAEs, e - Number of events [2, 5]: 42 | TEAEs, n - Number of subjects [2, 5]: 19 | AESI, % [2, 6]: 6.7% | AESI, e - Number of events [2, 6]: 4 | AESI, n - Number of subjects [2, 6]: 4 | SAEs, % [2, 6]: 1.7% | SAEs, e - Number of events [2, 6]: 1 | SAEs, n - Number of subjects [2, 6]: 1 | TEAEs Drug-Related, % [2, 6]: 10.0% | TEAEs Drug-Related, e - Number of events [2, 6]: 8 | TEAEs Drug-Related, n - Number of subjects [2, 6]: 6 | TEAEs Leading to death, % [2, 6]: 1.7% | TEAEs Leading to death, e - Number of events [2, 6]: 1 | TEAEs Leading to death, n - Number of subjects [2, 6]: 1 | TEAEs Leading to dosing discontinuation, % [2, 6]: 3.3% | TEAEs Leading to dosing discontinuation, e - Number of events [2, 6]: 2 | TEAEs Leading to dosing discontinuation, n - Number of subjects [2, 6]: 2 | TEAEs Leading to study discontinuation, % [2, 6]: 1.7% | TEAEs Leading to study discontinuation, e - Number of events [2, 6]: 1 | TEAEs Leading to study discontinuation, n - Number of subjects [2, 6]: 1 | TEAEs, % [2, 6]: 23.3% | TEAEs, e - Number of events [2, 6]: 27 | TEAEs, n - Number of subjects [2, 6]: 14 | hyperkalemia leading to trial discontinuation ([2]; active Baxdrostat groups): No instances of hyperkalemia led to trial discontinuation | TESAE, Number of Subjects (Number of Events) ([3]; 0.5 mg): 0 (0) subjects (events) | TESAE: General disorders and administration site conditions ([3]; 0.5 mg): 0 subjects (events) | TESAE: Infections and infestations ([3]; 0.5 mg): 0 subjects (events) | TESAE: Metabolism and nutrition disorders ([3]; 0.5 mg): 0 subjects (events) | TESAE: Musculoskeletal and connective tissue disorders ([3]; 0.5 mg): 0 subjects (events) | TESAE: Nervous system disorders ([3]; 0.5 mg): 0 subjects (events) | TESAE: Renal and urinary disorders ([3]; 0.5 mg): 0 subjects (events) | TESAE: Respiratory, thoracic and mediastinal disorders ([3]; 0.5 mg): 0 subjects (events) | adverse events of special interest (AESIs), patients per arm ([3]; 0.5 mg): 1 | percentage of patients who experienced TEAEs ([3]; 0.5 mg): 34.8% | TESAE, Number of Subjects (Number of Events) ([3]; 1 mg): 2 (3) subjects (events) | TESAE: Infections and infestations ([3]; 1 mg): 1 (1) subjects (events) | TESAE: Intervertebral disc degeneration ([3]; 1 mg): 1 (1) subjects (events) | TESAE: Musculoskeletal and connective tissue disorders ([3]; 1 mg): 1 (1) subjects (events) | TESAE: Nephrolithiasis ([3]; 1 mg): 1 (1) subjects (events) | TESAE: Pyelonephritis ([3]; 1 mg): 1 (1) subjects (events) | TESAE: Renal and urinary disorders ([3]; 1 mg): 1 (1) subjects (events) | percentage of patients who experienced TEAEs ([3]; 1 mg): 52.2% | adverse events of special interest (AESIs), patients per arm ([3]; 1 mg arm): 5 | TESAE, Number of Subjects (Number of Events) ([3]; 2 mg): 6 (12) subjects (events) | TESAE: Acute kidney injury ([3]; 2 mg): 1 (1) subjects (events) | TESAE: Acute respiratory failure ([3]; 2 mg): 1 (1) subjects (events) | TESAE: Arthralgia ([3]; 2 mg): 1 (1) subjects (events) | TESAE: Cellulitis ([3]; 2 mg): 1 (1) subjects (events) | TESAE: Dehydration ([3]; 2 mg): 1 (1) subjects (events) | TESAE: Dizziness ([3]; 2 mg): 1 (1) subjects (events) | TESAE: Hyperglycaemia ([3]; 2 mg): 1 (1) subjects (events) | TESAE: Hyperkalemia ([3]; 2 mg): 1 (1) subjects (events) | TESAE: Hyponatraemia ([3]; 2 mg): 1 (1) subjects (events) | TESAE: Infections and infestations ([3]; 2 mg): 2 (2) subjects (events) | TESAE: Metabolism and nutrition disorders ([3]; 2 mg): 1 (4) subjects (events) | TESAE: Musculoskeletal and connective tissue disorders ([3]; 2 mg): 1 (1) subjects (events) | TESAE: Nervous system disorders ([3]; 2 mg): 2 (2) subjects (events) | TESAE: Renal and urinary disorders ([3]; 2 mg): 1 (1) subjects (events) | TESAE: Respiratory failure ([3]; 2 mg): 1 (1) subjects (events) | TESAE: Respiratory, thoracic and mediastinal disorders ([3]; 2 mg): 2 (2) subjects (events) | TESAE: Syncope ([3]; 2 mg): 1 (1) subjects (events) | TESAE: Urinary tract infection ([3]; 2 mg): 1 (1) subjects (events) | percentage of patients who experienced TEAEs ([3]; 2 mg): 47.8% | adverse events of special interest (AESIs), patients per arm ([3]; 2 mg arm): 2 | adrenal insufficiency ([3]; Study 121): no reported cases of adrenal insufficiency | deaths and relatedness of SAEs ([3]; Study 121): no deaths in the study and all SAEs were assessed by the investigators to be unrelated to baxdrostat | tolerability ([3]; once daily for 12 weeks): well tolerated

Reference: US20260041679A1, “METHOD OF TREATING HYPERTENSION WITH THE ALDOSTERONE SYNTHASE INHIBITOR BAXDROSTAT” (CINCOR PHARMA, INC., priority 2022, published 2026)
